According to ChEMBL document CHEMBL5365543, “Benzamidine Conjugation Converts Expelled Potential Active Agents into Antifungals against Drug-Resistant Fungi” (J Med Chem, 2023):
≈ marks a conversion by molar mass, not a printed value. Calls of active or inactive are those of the source. The rule behind the calls is not given here.

How the values were obtained:
[1] = Toxicity in BALB/c mouse infected with clinical isolate fluconazole-resistant Candida albicans Gu5 assessed as animal survival at 6 mg/kg, ip administered on day 1 and day 3 post fungal infection measured after 4 days; assay type: organism-based; conditions: in vivo, 96 h, time 4 day
Candida albicans [2] = experiment: Antifungal activity against clinical isolate fluconazole-resistant Candida albicans Gu5 infected in BALB/c mouse assessed as fold reduction in kidney fungal burden at 6 mg/kg, ip administered on day 1 and day 3 post fungal infection measured after 7 days; assay type: functional; conditions: time 7.0 day
Candida albicans [3] = experiment: microbe, parasite or virus in culture; assay type: functional; conditions: DSY654, time 24 hrs
Description: Antifungal activity against efflux pump-deficient Candida albicans DSY654 assessed as inhibition of fungal growth measured after 24 hrs by CLSI based microtiter plate analysis

Candida albicans [4] = experiment: Antifungal activity against wild-type Candida albicans SC5314 assessed as inhibition of fungal growth measured after 24 hrs by CLSI based microtiter plate analysis; assay type: functional; conditions: Candida albicans, SC5314, 24 h, read-out: MIC80
Candida albicans [5] = experiment: Antifungal activity against clinical isolate Candida albicans YEM13 overexpressing efflux pump MdrL assessed as inhibition of fungal growth measured after 24 hrs by CLSI based microtiter plate analysis; assay type: functional
Candida albicans [6] = experiment: Antifungal activity against clinical isolate Candida albicans YEM15 overexpressing efflux pump CdrL and Cdr2 assessed as inhibition of fungal growth measured after 24 hrs by CLSI based microtiter plate analysis; assay type: functional
Candida albicans [7] = experiment: Antifungal activity against clinical isolate Candida albicans SCUPC2R14MPG2A harbouring UPC2 mutation overexpressing […] Erg11 assessed as inhibition of fungal growth measured after 24 hrs by CLSI based microtiter plate analysis; assay type: functional
Candida albicans [8] = experiment: Antifungal activity against clinical isolate fluconazole-resistant Candida albicans DSY296 harbouring TAC1 mutation overexpressing efflux pump CdrL and Cdr2 assessed as inhibition of fungal growth measured after 24 hrs by CLSI based microtiter plate analysis; assay type: functional
Candida albicans [9] = experiment: Antifungal activity against clinical isolate fluconazole-resistant Candida albicans G5 harbouring MRR1 mutation overexpressing MdrL assessed as inhibition of fungal growth measured after 24 hrs by CLSI based microtiter plate analysis; assay type: functional
Candida albicans [10] = experiment: Antifungal activity against clinical isolate fluconazole-resistant Candida albicans Gu5 harbouring TAC1 mutation overexpressing efflux pump CdrL and Cdr2 assessed as inhibition of fungal growth measured after 24 hrs by CLSI based microtiter plate analysis; assay type: functional
Candida albicans [11] = experiment: Antifungal activity against clinical isolate fluconazole-resistant Candida albicans CA632 assessed as inhibition of fungal growth measured after 24 hrs by CLSI based microtiter plate analysis; assay type: functional
[Candida] auris [12] = Antifungal activity against clinical isolate fluconazole-resistant Candida auris CBS12774 assessed as inhibition of fungal growth measured after 24 hrs by CLSI based microtiter plate analysis; assay type: functional; conditions: Candidozyma auris
[Candida] auris [13] = Antifungal activity against clinical isolate fluconazole-resistant Candida auris CBS12776 assessed as inhibition of fungal growth measured after 24 hrs by CLSI based microtiter plate analysis; assay type: functional; conditions: Candidozyma auris
Nakaseomyces glabratus = experiment: Antifungal activity against clinical isolate fluconazole-resistant Candida glabrata CG2 assessed as inhibition of fungal growth measured after 24 hrs by CLSI based microtiter plate analysis; assay type: functional
Cryptococcus neoformans = experiment: Antifungal activity against clinical isolate fluconazole-resistant Cryptococcus neoformans H99 assessed as inhibition of fungal growth measured after 24 hrs by CLSI based microtiter plate analysis; assay type: functional
Candida tropicalis = experiment: Antifungal activity against clinical isolate fluconazole-resistant Candida tropicalis CT10 assessed as inhibition of fungal growth measured after 24 hrs by CLSI based microtiter plate analysis; assay type: functional
[14] = Induction of drug resistance in wild-type Candida albicans SC5314 assessed as change in MIC at 0.5 times of MIC measured after 30 passages by broth microdilution method (reference value: 2 microg/ml); assay type: functional
[15] = Induction of DNA damage in human HBE cells assessed as increase in gammaH2AX level at 8 microg/ml by Western blotting analysis; assay type: toxicity, cell-based; conditions: dose 8 µg/ml

Compound	Activity [1]	Activity (Candida albicans [2])	MIC80 (Candida albicans [3]) [µg/mL]	MIC80 (Candida albicans [4]) [µg/mL]	MIC80 (Candida albicans [5]) [µg/mL]	MIC80 (Candida albicans [6]) [µg/mL]	MIC80 (Candida albicans [7]) [µg/mL]	MIC80 (Candida albicans [8]) [µg/mL]	MIC80 (Candida albicans [9]) [µg/mL]	MIC80 (Candida albicans [10]) [µg/mL]	MIC80 (Candida albicans [11]) [µg/mL]	MIC80 ([Candida] auris [12]) [µg/mL]	MIC80 ([Candida] auris [13]) [µg/mL]	MIC80 (Nakaseomyces glabratus) [µg/mL]	MIC80 (Cryptococcus neoformans) [µg/mL]	MIC80 (Candida tropicalis) [µg/mL]	MIC [14] [µg/mL]	Activity [15]
C=C1C(=O)[C@@]2(C)CC[C@@H]3[C@@]1(CC[C@H]1[C@@]3(C)CCC[C@@]1(C)C(=O)OCCC[P+](c1ccccc1)(c1ccccc1)c1ccccc1)C2.[I-]	Toxic	inactive																
OC(Cn1cncn1)(Cn1cncn1)c1ccc(F)cc1F [FLUCONAZOLE]			0.5 (≈ 1.63 µM)	2 (≈ 6.53 µM)	64 (≈ 209 µM)	64 (≈ 209 µM)	> 128	> 128	> 128	> 128	> 128	> 128	> 128	64 (≈ 209 µM)	2 (≈ 6.53 µM)	> 128	128	Non-Toxic
